Results: PMC5218480 (PLoS ONE, 2017)

System: MV-4-11 cells
Assay: Gene expression microarray analysis (Affymetrix PrimeView) and GSEA
Assay type: cell-based, human
Set-up: RFU PODN (11730768_x_at) / Fold change /veh PODN (11730768_x_at) / RFU LINC00158 (11744669_a_at) / Fold change /veh LINC00158 (11744669_a_at) / RFU DUSP10 (11751237_a_at) / Fold change /veh DUSP10 (11751237_a_at) / RFU ID3 (11757404_x_at) / Fold change /veh ID3 (11757404_x_at) / RFU PLEKHG5 (11737974_s_at) / Fold change /veh PLEKHG5 (11737974_s_at) / RFU LRRC4B (11730491_at) / Fold change /veh LRRC4B (11730491_at) / RFU GIMAP4 (11747438_a_at) / Fold change /veh GIMAP4 (11747438_a_at) / RFU KRT8 (11758183_x_at) / Fold change /veh KRT8 (11758183_x_at) / RFU CNN1 (11734310_a_at) / Fold change /veh CNN1 (11734310_a_at) / RFU VPS37D (11726825_at) / Fold change /veh VPS37D (11726825_at) / RFU C10orf10 (11716522_x_at) / Fold change /veh C10orf10 (11716522_x_at) / RFU KIR2DL2 /// KIR2DL4 /// KIR2DL5A /// KIR2DL5B /// KIR2DS1 /// KIR2DS2 /// KIR2DS3 /// KIR2DS4 /// KIR3DL3 /// KIR3DL3 /// KIR3DS1 (11738374_at) / Fold change /veh KIR2DL2 /// KIR2DL4 /// KIR2DL5A /// KIR2DL5B /// KIR2DS1 /// KIR2DS2 /// KIR2DS3 /// KIR2DS4 /// KIR3DL3 /// KIR3DL3 /// KIR3DS1 (11738374_at) / RFU C1QL1 (11718748_at) / Fold change /veh C1QL1 (11718748_at) / RFU TMPRSS4 (11747572_a_at) / Fold change /veh TMPRSS4 (11747572_a_at) / RFU HAMP (11756126_x_at) / Fold change /veh HAMP (11756126_x_at) / RFU RNFT2 (11725882_a_at) / Fold change /veh RNFT2 (11725882_a_at) / RFU NR4A2 (11747474_a_at) / Fold change /veh NR4A2 (11747474_a_at) / RFU ABCC12 (11746883_a_at) / Fold change /veh ABCC12 (11746883_a_at) / RFU TMEM136 (11760407_x_at) / Fold change /veh TMEM136 (11760407_x_at) / RFU CLDN22 /// WWC2 (11732394_at) / Fold change /veh CLDN22 /// WWC2 (11732394_at) / RFU HLA-DPB1 (11760878_x_at) / Fold change /veh HLA-DPB1 (11760878_x_at) / RFU SPINT1 (11716480_a_at) / Fold change /veh SPINT1 (11716480_a_at) / RFU GAP43 (11754022_s_at) / Fold change /veh GAP43 (11754022_s_at) / RFU A4GNT (11735810_at) / Fold change /veh A4GNT (11735810_at) / RFU PRB3 (11715151_x_at) / Fold change /veh PRB3 (11715151_x_at) / RFU TUBB4B (11761932_at) / Fold change /veh TUBB4B (11761932_at) / RFU CAPN14 (11732068_a_at) / Fold change /veh CAPN14 (11732068_a_at) / RFU TMCC2 (11721928_a_at) / Fold change /veh TMCC2 (11721928_a_at) / RFU IRGQ (11745062_a_at) / Fold change /veh IRGQ (11745062_a_at) / RFU FAM174B (11720279_a_at) / Fold change /veh FAM174B (11720279_a_at) / RFU TMPRSS4 (11748680_a_at) / Fold change /veh TMPRSS4 (11748680_a_at) / RFU FAM212B (11763350_a_at) / Fold change /veh FAM212B (11763350_a_at) / RFU PLEKHG5 (11743358_a_at) / Fold change /veh PLEKHG5 (11743358_a_at) / RFU ZSCAN30 (11745921_a_at) / Fold change /veh ZSCAN30 (11745921_a_at) / RFU CMKLR1 (11741424_a_at) / Fold change /veh CMKLR1 (11741424_a_at) / RFU LOC101060620 /// MAPK8IP1 (11723275_at) / Fold change /veh LOC101060620 /// MAPK8IP1 (11723275_at) / RFU SPTSSB (11747773_x_at) / Fold change /veh SPTSSB (11747773_x_at) / RFU PRSS12 (11739890_at) / Fold change /veh PRSS12 (11739890_at) / RFU BIN1 (11741810_x_at) / Fold change /veh BIN1 (11741810_x_at) / RFU WNT11 (11732464_a_at) / Fold change /veh WNT11 (11732464_a_at) / RFU C10orf10 (11716521_a_at) / Fold change /veh C10orf10 (11716521_a_at) / RFU C5orf56 (11738089_at) / Fold change /veh C5orf56 (11738089_at) / RFU CYB561 (11721691_x_at) / Fold change /veh CYB561 (11721691_x_at) / RFU ANKRD19P (11752326_a_at) / Fold change /veh ANKRD19P (11752326_a_at) / RFU OR2T12 /// OR2T33 /// OR2T8 (11738714_s_at) / Fold change /veh OR2T12 /// OR2T33 /// OR2T8 (11738714_s_at) / RFU VCAN (11748164_a_at) / Fold change /veh VCAN (11748164_a_at) / RFU JSRP1 (11732532_at) / Fold change /veh JSRP1 (11732532_at) / RFU KRTAP10-11 (11738290_x_at) / Fold change /veh KRTAP10-11 (11738290_x_at) / RFU MYO3A (11730013_a_at) / Fold change /veh MYO3A (11730013_a_at) / RFU EBF3 (11725865_a_at) / Fold change /veh EBF3 (11725865_a_at) / RFU CAMK2N1 (11719241_x_at) / Fold change /veh CAMK2N1 (11719241_x_at) / RFU C5orf56 (11738088_a_at) / Fold change /veh C5orf56 (11738088_a_at) / RFU OLFML3 (11715873_a_at) / Fold change /veh OLFML3 (11715873_a_at) / RFU LOC100653217 /// NTM (11731650_a_at) / Fold change /veh LOC100653217 /// NTM (11731650_a_at) / RFU MAPK11 (11762145_a_at) / Fold change /veh MAPK11 (11762145_a_at) / RFU FIZ1 (11724087_x_at) / Fold change /veh FIZ1 (11724087_x_at) / RFU OASL (11726364_x_at) / Fold change /veh OASL (11726364_x_at) / RFU SOX15 (11748057_x_at) / Fold change /veh SOX15 (11748057_x_at) / RFU CD79A (11719716_a_at) / Fold change /veh CD79A (11719716_a_at) / RFU HIST1H1D (11736915_at) / Fold change /veh HIST1H1D (11736915_at) / RFU CASKIN2 (11723855_a_at) / Fold change /veh CASKIN2 (11723855_a_at) / RFU LOC730098 (11760151_x_at) / Fold change /veh LOC730098 (11760151_x_at) / RFU OR4N2 (11742367_at) / Fold change /veh OR4N2 (11742367_at) / RFU PRRT2 (11749266_a_at) / Fold change /veh PRRT2 (11749266_a_at) / RFU SNX32 (11753110_a_at) / Fold change /veh SNX32 (11753110_a_at) / RFU CDHR5 (11726645_a_at) / Fold change /veh CDHR5 (11726645_a_at) / RFU RCAN1 (11760418_a_at) / Fold change /veh RCAN1 (11760418_a_at) / RFU FAM167A (11723789_a_at) / Fold change /veh FAM167A (11723789_a_at) / RFU FAM26E (11764081_at) / Fold change /veh FAM26E (11764081_at) / RFU ISYNA1 (11749810_s_at) / Fold change /veh ISYNA1 (11749810_s_at) / RFU ACY1 (11761880_at) / Fold change /veh ACY1 (11761880_at) / RFU 11764098_at / Fold change /veh 11764098_at / RFU SAMD14 (11745864_x_at) / Fold change /veh SAMD14 (11745864_x_at) / RFU NPB (11741838_a_at) / Fold change /veh NPB (11741838_a_at) / RFU TMPRSS6 (11731388_a_at) / Fold change /veh TMPRSS6 (11731388_a_at) / RFU KRTAP10-2 (11738614_at) / Fold change /veh KRTAP10-2 (11738614_at) / RFU ARHGAP8 /// PRR5-ARHGAP8 (11727945_x_at) / Fold change /veh ARHGAP8 /// PRR5-ARHGAP8 (11727945_x_at) / RFU KRTAP5-7 /// NADSYN1 (11734609_at) / Fold change /veh KRTAP5-7 /// NADSYN1 (11734609_at) / RFU RASL12 (11751679_a_at) / Fold change /veh RASL12 (11751679_a_at) / RFU CDKN2B (11736163_a_at) / Fold change /veh CDKN2B (11736163_a_at) / RFU PRF1 (11729649_at) / Fold change /veh PRF1 (11729649_at) / RFU, ZNF638 /// ZNF638-IT1 / Fold change vs veh, ZNF638 /// ZNF638-IT1 / RFU, PANK3 / Fold change vs veh, PANK3 / RFU, SH3YL1 / Fold change vs veh, SH3YL1 / RFU, ZEB2 / Fold change vs veh, ZEB2 / RFU, NRIP1 / Fold change vs veh, NRIP1 / RFU, PTTG1IP / Fold change vs veh, PTTG1IP / RFU, CAPN2 / Fold change vs veh, CAPN2 / RFU, MED14 / Fold change vs veh, MED14 / RFU, SNORA58 / Fold change vs veh, SNORA58 / RFU, C1orf63 / Fold change vs veh, C1orf63 / RFU, LRRFIP1 / Fold change vs veh, LRRFIP1 / RFU, NDUFAF7 / Fold change vs veh, NDUFAF7 / RFU, SLC12A2 / Fold change vs veh, SLC12A2 / RFU, IBTK / Fold change vs veh, IBTK / RFU, ESF1 / Fold change vs veh, ESF1 / Fold change vs veh, TMEM50B / RFU, TAOK1 / Fold change vs veh, TAOK1 / RFU, ACBD3 / Fold change vs veh, ACBD3 / RFU, TMA16 / Fold change vs veh, TMA16 / RFU, RWDD3 / Fold change vs veh, RWDD3 / RFU, BCAT1 / Fold change vs veh, BCAT1 / RFU, EDEM3 / Fold change vs veh, EDEM3 / RFU, TMEM33 / Fold change vs veh, TMEM33 / RFU, WDR75 / Fold change vs veh, WDR75 / RFU, AHCTF1 / Fold change vs veh, AHCTF1 / RFU, TFRC / Fold change vs veh, TFRC / RFU, ZDHHC17 / Fold change vs veh, ZDHHC17 / RFU, NOM1 / Fold change vs veh, NOM1 / RFU, ARL8B / Fold change vs veh, ARL8B / RFU, ZBTB11 / Fold change vs veh, ZBTB11 / RFU, TAMM41 / Fold change vs veh, TAMM41 / RFU, KIAA1704 /// LOC100996395 / Fold change vs veh, KIAA1704 /// LOC100996395 / RFU, ING1 / Fold change vs veh, ING1 / RFU, TRMT61B / Fold change vs veh, TRMT61B / RFU, FUBP3 / Fold change vs veh, FUBP3 / RFU, TP53 / Fold change vs veh, TP53 / RFU, TNKS2 / Fold change vs veh, TNKS2 / RFU, ZFP14 / Fold change vs veh, ZFP14 / RFU, ACTR2 / Fold change vs veh, ACTR2 / RFU, PPP3R1 / Fold change vs veh, PPP3R1 / RFU, PIK3R1 / Fold change vs veh, PIK3R1 / RFU, HNRNPA1 / Fold change vs veh, HNRNPA1 / RFU, RNF170 / Fold change vs veh, RNF170 / RFU, ZNF28 / Fold change vs veh, ZNF28 / RFU, RNGTT / Fold change vs veh, RNGTT / RFU, OGT / Fold change vs veh, OGT / RFU, BRD1 / Fold change vs veh, BRD1 / RFU, MARS / Fold change vs veh, MARS / RFU, ZNF655 / Fold change vs veh, ZNF655 / RFU, FAHD1 / Fold change vs veh, FAHD1 / RFU, BDP1 / Fold change vs veh, BDP1 / RFU, LRRCC1 / Fold change vs veh, LRRCC1 / RFU, ARID1A / Fold change vs veh, ARID1A / RFU, ZNF146 / Fold change vs veh, ZNF146 / RFU, ZNF330 / Fold change vs veh, ZNF330 / RFU, GPN3 / Fold change vs veh, GPN3 / RFU, C9orf123 / Fold change vs veh, C9orf123 / RFU, N4BP2L2 / Fold change vs veh, N4BP2L2 / RFU, ARFIP1 / Fold change vs veh, ARFIP1 / RFU, FAM179B / Fold change vs veh, FAM179B / RFU, BCL10 / Fold change vs veh, BCL10 / RFU, UHRF1BP1L / Fold change vs veh, UHRF1BP1L / RFU, BET1 / Fold change vs veh, BET1 / RFU, CNOT2 / Fold change vs veh, CNOT2 / RFU, ZNF268 / Fold change vs veh, ZNF268 / Fold change vs veh, ZNF507 / RFU, DGCR2 / Fold change vs veh, DGCR2 / RFU, WDSUB1 / Fold change vs veh, WDSUB1 / Fold change vs veh, HSP90B1 /// MIR3652 / RFU, ADSS / Fold change vs veh, ADSS / RFU, GK / Fold change vs veh, GK / RFU, ZNF148 / Fold change vs veh, ZNF148 / RFU, TAF9 / Fold change vs veh, TAF9 / RFU, SLC1A5 / Fold change vs veh, SLC1A5 / RFU, SLMO2 / Fold change vs veh, SLMO2 / RFU, ABCC4 / Fold change vs veh, ABCC4 / RFU, LOC101060439 /// RAP1B / Fold change vs veh, LOC101060439 /// RAP1B / RFU, RFX7 / Fold change vs veh, RFX7 / RFU, GTPBP10 / Fold change vs veh, GTPBP10 / RFU, CNEP1R1 / Fold change vs veh, CNEP1R1 / RFU, BIVM-ERCC5 /// ERCC5 / Fold change vs veh, BIVM-ERCC5 /// ERCC5 / RFU, ILF3 / Fold change vs veh, ILF3 / RFU 11762660_at / Fold change /veh 11762660_at / RFU VCAN (11757783_s_at) / Fold change /veh VCAN (11757783_s_at) / RFU DDX43 (11728927_at) / Fold change /veh DDX43 (11728927_at) / RFU KRT8 (11758188_x_at) / Fold change /veh KRT8 (11758188_x_at) / RFU NKD1 (11759106_at) / Fold change /veh NKD1 (11759106_at) / RFU SRD5A1 (11742802_a_at) / Fold change /veh SRD5A1 (11742802_a_at) / RFU TPSAB1 /// TPSB2 (11721975_s_at) / Fold change /veh TPSAB1 /// TPSB2 (11721975_s_at) / RFU GSTM3 (11746129_a_at) / Fold change /veh GSTM3 (11746129_a_at) / RFU IL23R (11737362_x_at) / Fold change /veh IL23R (11737362_x_at) / RFU TMEM51 (11727254_a_at) / Fold change /veh TMEM51 (11727254_a_at) / RFU PIWIL2 (11732686_x_at) / Fold change /veh PIWIL2 (11732686_x_at) / RFU ORM1 (11744905_x_at) / Fold change /veh ORM1 (11744905_x_at) / RFU CCDC152 (11743942_at) / Fold change /veh CCDC152 (11743942_at) / RFU ECM1 (11717891_a_at) / Fold change /veh ECM1 (11717891_a_at) / RFU IL23R (11748794_a_at) / Fold change /veh IL23R (11748794_a_at) / RFU TNFAIP8L3 (11732012_x_at) / Fold change /veh TNFAIP8L3 (11732012_x_at) / RFU MBOAT4 (11741988_at) / Fold change /veh MBOAT4 (11741988_at) / RFU 11764193_at / Fold change /veh 11764193_at / RFU TMEM53 (11763286_at) / Fold change /veh TMEM53 (11763286_at) / RFU MAGEB2 (11727129_at) / Fold change /veh MAGEB2 (11727129_at) / RFU TMEM200A (11744735_a_at) / Fold change /veh TMEM200A (11744735_a_at) / RFU CCDC152 (11751479_a_at) / Fold change /veh CCDC152 (11751479_a_at) / RFU FAM211A (11726209_a_at) / Fold change /veh FAM211A (11726209_a_at) / RFU RGS16 (11746705_a_at) / Fold change /veh RGS16 (11746705_a_at) / RFU VCAN (11755009_s_at) / Fold change /veh VCAN (11755009_s_at) / RFU RHOB (11743442_s_at) / Fold change /veh RHOB (11743442_s_at) / RFU RGS16 (11720943_a_at) / Fold change /veh RGS16 (11720943_a_at) / RFU RGS16 (11720944_at) / Fold change /veh RGS16 (11720944_at) / RFU, VPS4B / Fold change vs veh, VPS4B / RFU, CREB1 / Fold change vs veh, CREB1 / RFU, DNAJC13 / Fold change vs veh, DNAJC13 / RFU, GNAQ / Fold change vs veh, GNAQ / RFU, CDK5R1 / Fold change vs veh, CDK5R1 / RFU, ZRANB3 / Fold change vs veh, ZRANB3 / RFU, CUL4A / Fold change vs veh, CUL4A / RFU, CCNY / Fold change vs veh, CCNY / RFU, UFL1 / Fold change vs veh, UFL1 / RFU, COG3 / Fold change vs veh, COG3 / RFU, DIAPH2 / Fold change vs veh, DIAPH2 / RFU, SKA2 / Fold change vs veh, SKA2 / RFU, AFF3 / Fold change vs veh, AFF3 / RFU, LMF1 / Fold change vs veh, LMF1 / RFU, IPO11 / Fold change vs veh, IPO11 / RFU, DFFB / Fold change vs veh, DFFB / RFU, FOXP1 / Fold change vs veh, FOXP1 / RFU, CARD8 / Fold change vs veh, CARD8 / RFU, STRN3 / Fold change vs veh, STRN3 / RFU, ADK / Fold change vs veh, ADK / RFU, RASSF2 / Fold change vs veh, RASSF2 / RFU, WIPF1 / Fold change vs veh, WIPF1 / RFU, LARP1B / Fold change vs veh, LARP1B / RFU, RASA1 / Fold change vs veh, RASA1 / RFU, RB1 / Fold change vs veh, RB1 / RFU, PPFIA1 / Fold change vs veh, PPFIA1 / RFU, MAT2A / Fold change vs veh, MAT2A / RFU, CCT5 / Fold change vs veh, CCT5 / RFU, WDR92 / Fold change vs veh, WDR92 / RFU, CUX1 / Fold change vs veh, CUX1 / RFU, TTC7A / Fold change vs veh, TTC7A / RFU, TMEM135 / Fold change vs veh, TMEM135 / RFU, DEPTOR / Fold change vs veh, DEPTOR / RFU, CPM / Fold change vs veh, CPM / RFU, DNAJB6 / Fold change vs veh, DNAJB6 / RFU, CACNA2D3 / Fold change vs veh, CACNA2D3 / RFU, DTX4 / Fold change vs veh, DTX4 / RFU, TFCP2 / Fold change vs veh, TFCP2 / RFU, GMCL1 /// GMCL1P1 / Fold change vs veh, GMCL1 /// GMCL1P1 / RFU, AEBP2 / Fold change vs veh, AEBP2 / RFU, SNHG1 /// SNORD22 /// SNORD25 /// SNORD26 /// SNORD27 /// SNORD28 /// SNORD29 /// SNORD31 / Fold change vs veh, SNHG1 /// SNORD22 /// SNORD25 /// SNORD26 /// SNORD27 /// SNORD28 /// SNORD29 /// SNORD31 / Fold change (Aza/veh), C12orf56 (ProbeSet 11735607_a_at) / Fold change (ACY-1035/veh), C12orf56 (ProbeSet 11735607_a_at) / Fold change (Aza/veh), FGFR1OP (ProbeSet 11751329_s_at) / Fold change (ACY-1035/veh), FGFR1OP (ProbeSet 11751329_s_at) / Fold change (Aza/veh), VPS36 (ProbeSet 11739960_a_at) / Fold change (ACY-1035/veh), VPS36 (ProbeSet 11739960_a_at) / RFU SYPL1 (11715823_x_at) / Fold change /veh SYPL1 (11715823_x_at) / RFU IGFBP7 (11715501_s_at) / Fold change /veh IGFBP7 (11715501_s_at) / RFU REEP3 (11722064_at) / Fold change /veh REEP3 (11722064_at) / RFU IGLL1 (11728026_x_at) / Fold change /veh IGLL1 (11728026_x_at): dose or concentration left out as unconfirmed
Conditions: ProbeSet 11749781_s_at; LIST B

For Nc1ccc(-c2cccs2)cc1NC(=O)c1ccc2c(c1)cc(C1CC1)n2CCN1CCOCC1 [ACY-1035], the “RFU, BCAT1” value was 11.38 RFU.
